Data as given in patent US7396837B2, “Antitumoral analogs of lamellarins” (Pharma Mar, S.A.U., priority 2002, dated 2008).
Like-named read-outs stand apart in the source and are kept apart here.

Key:
Format in all cases: cell-based
[1] = test system: IGROV; assay: SRB colorimetric cell growth inhibition assay, IGROV; details: Homo sapiens, IGROV; for GI50: read-out: GI50 IGROV; for CC50: read-out: LC50 IGROV; for IC (TGI): read-out: TGI IGROV
How it was run: (§1)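 Growth inhibition (GI), cytostatic total growth inhibition (TGI) and cytotoxic cell-kill (LC) parameters were calculated from SRB-stained cultures held under constant compound exposure, triplicates averaged.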

[2] = test system: SK-MEL-28; assay: SRB colorimetric cell growth inhibition assay, SK-MEL-28; details: Homo sapiens
How it was run: as §1

[3] = test system: LoVo; assay: SRB colorimetric cell growth inhibition assay, LoVo; details: Homo sapiens, LoVo; for GI50: read-out: GI50 LOVO; for CC50: read-out: LC50 LOVO; for IC (TGI): read-out: TGI LOVO
How it was run: as §1

[4] = test system: HT-29; assay: SRB colorimetric cell growth inhibition assay, HT-29; details: Homo sapiens
How it was run: as §1

[5] = test system: LNCaP; assay: SRB colorimetric cell growth inhibition assay, LNCaP; details: Homo sapiens, LNCaP; for GI50: read-out: GI50 LN-caP; for CC50: read-out: LC50 LN-caP; for IC (TGI): read-out: TGI LN-caP
Description: (§2) The finality of these assays is to interrupt the growth of an “in vitro” tumor cell culture by means a continued exhibition of the cells to the sample to be testing.
(§3) A colorimetric type of assay, using sulforhodamine B (SRB) reaction has been adapted for a quantitative measurement of cell growth and viability (following the technique described by P. A. Skehan, et al., J. Natl. Cancer Inst. 1990, 82, 1107-1112).
(§4) This form of assay employs 96 well cell culture microplates of 9 mm diameter (T. Mosmann et al., J. of Immunological Methods 1983, 65, 55-63; G. T. Faircloth et al., J. of Tissue and Culture Methods 1988, 11, 201-205).
(§5) Most of the cell lines are obtained from American Type Culture Collection (ATCC) derived from different human cancer types.
(§6) The values for mean +/− SD of data from triplicate wells are calculated. Some parameters for cellular responses can be calculated: GI=growth inhibition, TGI=total growth inhibition (cytostatic effect) and LC=cell killing (cytotoxic effect).

[6] = test system: LoVo-Dox; assay: SRB colorimetric cell growth inhibition assay, LoVo-Dox (MDR); details: Homo sapiens; for GI50: read-out: GI50 LOVO-DOX; for CC50: read-out: LC50 LOVO-DOX; for IC (TGI): read-out: TGI LOVO-DOX
How it was run: as §1

[7] = test system: PANC-1; assay: SRB colorimetric cell growth inhibition assay, PANC-1; details: Homo sapiens
How it was run: as §1

[8] = test system: K-562; assay: SRB colorimetric cell growth inhibition assay, K-562; details: Homo sapiens
Description: as §2, §3, §4, §5, §6

[9] = test system: DU-145; assay: SRB colorimetric cell growth inhibition assay, DU-145; details: Homo sapiens
How it was run: as §1

[10] = test system: HeLa; assay: SRB colorimetric cell growth inhibition assay, HeLa; details: Homo sapiens, HeLa; for GI50: read-out: GI50 HELA; for CC50: read-out: LC50 HELA; for IC (TGI): read-out: TGI HELA
How it was run: as §1

[11] = test system: HeLa-APL; assay: SRB colorimetric cell growth inhibition assay, HeLa-APL (aplidine resistant); details: Homo sapiens; for GI50: read-out: GI50 HELA-APL; for CC50: read-out: LC50 HELA-APL; for IC (TGI): read-out: TGI HELA-APL
How it was run: as §1

[12] = test system: A-549; assay: SRB colorimetric cell growth inhibition assay, A-549; details: Homo sapiens
How it was run: as §1

[13] = test system: SK-BR-3; assay: SRB colorimetric cell growth inhibition assay, SK-BR-3; details: Homo sapiens
How it was run: as §1

[14] = test system: IGROV-ET; assay: SRB colorimetric cell growth inhibition assay, IGROV-ET (ET-743 resistant); details: Homo sapiens; for GI50: read-out: GI50 IGROV-ET; for CC50: read-out: LC50 IGROV-ET; for IC (TGI): read-out: TGI IGROV-ET
How it was run: as §1

[15] = cell killing (cytotoxic effect)
[16] = total growth inhibition (cytostatic effect)

COc1cc(-c2c3c4cc(OC)c(OC(=O)[C@H](C)NC(=O)[C@H](C)NC(=O)OC(C)(C)C)cc4oc(=O)c3n3ccc4c(OC(=O)[C@H](C)NC(=O)[C@H](C)NC(=O)OC(C)(C)C)c(OC)c(OC)cc4c23)ccc1OC(=O)[C@H](C)NC(=O)[C@H](C)NC(=O)OC(C)(C)C [Compound 6]
GI50 [1]: 0.963 µM | CC50 [1]: 7.96 µM | IC (TGI) [1]: 7.96 µM | GI50 ([2]; SK-MEL-28, read-out: GI50 MEL-28): 0.386 µM | CC50 ([2]; SK-MEL-28, read-out: LC50 MEL-28): 7.96 µM | IC (TGI) ([2]; SK-MEL-28, read-out: TGI MEL-28): 1.74 µM | GI50 [3]: 2.79 µM | CC50 [3]: 7.96 µM | IC (TGI) [3]: 7.96 µM | GI50 ([4]; HT-29, read-out: GI50 HT-29): 7.96 µM | CC50 ([4]; HT-29, read-out: LC50 HT-29): 7.96 µM | IC (TGI) ([4]; HT-29, read-out: TGI HT-29): 7.96 µM | GI50 [5]: 0.578 µM | CC50 [5]: 7.96 µM | IC (TGI) [5]: 7.96 µM | GI50 [6]: 3.84 µM | CC50 [6]: 7.96 µM | IC (TGI) [6]: 7.96 µM | GI50 ([7]; PANC-1, read-out: GI50 PANC-1): 2.46 µM | CC50 ([7]; PANC-1, read-out: LC50 PANC-1): 7.96 µM | IC (TGI) ([7]; PANC-1, read-out: TGI PANC-1): 7.96 µM | GI50 ([8]; K562, read-out: GI50 K-562): 0.482 µM | CC50 ([8]; K562, read-out: LC50 K-562): 7.96 µM | IC (TGI) ([8]; K562, read-out: TGI K-562): 5.38 µM | GI50 ([9]; DU-145, read-out: GI50 DU-145): 0.355 µM | CC50 ([9]; DU-145, read-out: LC50 DU-145): 7.96 µM | IC (TGI) ([9]; DU-145, read-out: TGI DU-145): 1.46 µM | GI50 [10]: 0.584 µM | CC50 [10]: 7.96 µM | IC (TGI) [10]: 7.96 µM | GI50 [11]: 3.41 µM | CC50 [11]: 7.96 µM | IC (TGI) [11]: 7.96 µM | GI50 ([12]; A549, read-out: GI50 A-549): 0.497 µM | CC50 ([12]; A549, read-out: LC50 A-549): 7.96 µM | IC (TGI) ([12]; A549, read-out: TGI A-549): 7.96 µM | GI50 ([13]; SK-BR-3, read-out: GI50 SK-BR-3): 0.548 µM | CC50 ([13]; SK-BR-3, read-out: LC50 SK-BR-3): 7.96 µM | IC (TGI) ([13]; SK-BR-3, read-out: TGI SK-BR-3): 2.56 µM | GI50 [14]: 1.39 µM | CC50 [14]: 7.96 µM | IC (TGI) [14]: 7.96 µM

COc1cc(-c2c3c4cc(OC)c(OC(=O)CCc5ccccc5)cc4oc(=O)c3n3ccc4cc(OC(=O)CCc5ccccc5)c(OC)cc4c23)ccc1OC(=O)CCc1ccccc1 [Compound 8]
GI50 ([1]; GI=growth inhibition): 0.445 µM | CC50 [1, 15]: 11.2 µM | IC (TGI) [1, 16]: 2.17 µM | GI50 ([2]; SK-MEL-28, MEL-28, GI=growth inhibition, read-out: GI50 MEL-28): 0.407 µM | CC50 ([2]; SK-MEL-28, MEL-28, cell killing (cytotoxic effect), read-out: LC50 MEL-28): 11.2 µM | IC (TGI) ([2]; SK-MEL-28, MEL-28, total growth inhibition (cytostatic effect), read-out: TGI MEL-28): 2.2 µM | GI50 ([3]; GI=growth inhibition): 1.48 µM | CC50 [3, 15]: 11.2 µM | IC (TGI) [3, 16]: 4.68 µM | GI50 ([4]; HT-29, HT-29, GI=growth inhibition, read-out: GI50 HT-29): 0.377 µM | CC50 ([4]; HT-29, HT-29, cell killing (cytotoxic effect), read-out: LC50 HT-29): 11.2 µM | IC (TGI) ([4]; HT-29, HT-29, total growth inhibition (cytostatic effect), read-out: TGI HT-29): 11.2 µM | GI50 ([5]; LN-caP, GI=growth inhibition): 0.654 µM | CC50 ([5]; LN-caP, cell killing (cytotoxic effect)): 7.21 µM | IC (TGI) ([5]; LN-caP, total growth inhibition (cytostatic effect)): 2.47 µM | GI50 ([6]; LOVO-DOX, GI=growth inhibition): 8.34 µM | CC50 ([6]; LOVO-DOX, cell killing (cytotoxic effect)): 11.2 µM | IC (TGI) ([6]; LOVO-DOX, total growth inhibition (cytostatic effect)): 11.2 µM | GI50 ([7]; PANC-1, PANC-1, GI=growth inhibition, read-out: GI50 PANC-1): 0.231 µM | CC50 ([7]; PANC-1, PANC-1, cell killing (cytotoxic effect), read-out: LC50 PANC-1): 11.2 µM | IC (TGI) ([7]; PANC-1, PANC-1, total growth inhibition (cytostatic effect), read-out: TGI PANC-1): 0.865 µM | GI50 ([8]; K562, K-562, GI=growth inhibition, read-out: GI50 K-562): 0.225 µM | CC50 ([8]; K562, K-562, cell killing (cytotoxic effect), read-out: LC50 K-562): 7.49 µM | IC (TGI) ([8]; K562, K-562, total growth inhibition (cytostatic effect), read-out: TGI K-562): 1.57 µM | GI50 ([9]; DU-145, DU-145, GI=growth inhibition, read-out: GI50 DU-145): 0.703 µM | CC50 ([9]; DU-145, DU-145, cell killing (cytotoxic effect), read-out: LC50 DU-145): 9.43 µM | IC (TGI) ([9]; DU-145, DU-145, total growth inhibition (cytostatic effect), read-out: TGI DU-145): 2.6 µM | GI50 ([10]; GI=growth inhibition): 0.276 µM | CC50 [10, 15]: 7.92 µM | IC (TGI) [10, 16]: 1.41 µM | GI50 ([11]; HELA-APL, GI=growth inhibition): 7.3 µM | CC50 ([11]; HELA-APL, cell killing (cytotoxic effect)): 11.2 µM | IC (TGI) ([11]; HELA-APL, total growth inhibition (cytostatic effect)): 11.2 µM | GI50 ([12]; A549, A-549, GI=growth inhibition, read-out: GI50 A-549): 0.744 µM | CC50 ([12]; A549, A-549, cell killing (cytotoxic effect), read-out: LC50 A-549): 11.2 µM | IC (TGI) ([12]; A549, A-549, total growth inhibition (cytostatic effect), read-out: TGI A-549): 6.34 µM | GI50 ([13]; SK-BR-3, SK-BR-3, GI=growth inhibition, read-out: GI50 SK-BR-3): 0.915 µM | CC50 ([13]; SK-BR-3, SK-BR-3, cell killing (cytotoxic effect), read-out: LC50 SK-BR-3): 9.19 µM | IC (TGI) ([13]; SK-BR-3, SK-BR-3, total growth inhibition (cytostatic effect), read-out: TGI SK-BR-3): 3.04 µM | GI50 ([14]; IGROV-ET, GI=growth inhibition): 3.35 µM | CC50 ([14]; IGROV-ET, cell killing (cytotoxic effect)): 11.2 µM | IC (TGI) ([14]; IGROV-ET, total growth inhibition (cytostatic effect)): 11.2 µM
